Laboratory results published in patent US20210395210A1, “INHIBITION OF BACTERIAL CHAPERONIN SYSTEMS” (THE TRUSTEES OF INDIANA UNIVERSITY, priority 2018, published 2021).
Entries after “also recorded” stand apart in the source; their conditions may differ. Like-named read-outs stand apart in the source and are kept apart here.

Assays:
[1] = tested on: S. aureus Rosenbach (ATCC 25923) biofilm formation; assay: S. aureus biofilm prevention assay (crystal violet); assay type: cell-based; conditions: Staphylococcus aureus, read-out: S. aureus Proliferation & Biofilm Assay EC50 Preventing Biofilm Formation
Method: The biofilm prevention assay was carried out with S. aureus Rosenbach (ATCC 25923) using a quantitative crystal violet-based adherence assay on 96-well plates. S. aureus (ATCC 25923) bacteria were streaked onto a Tryptic Soy Broth (TSB) agar plate and grown overnight at 37° C. A fresh aliquot of TSB media was inoculated with a single bacterial colony and the cultures were grown overnight at 37° C. with shaking (250 rpm). The overnight culture was then sub-cultured (1:5 dilution) into a fresh aliquot of TSB media supplemented to a final concentration of 0.5% glucose and grown at 37° C. for 1 h with shaking, then diluted into fresh TSB media supplemented with 0.5% glucose to achieve a final OD600 reading of 0.01. Aliquots of the diluted culture (100 μL) were dispensed to 96 well polystyrene plates along with addition of 1 μL test compounds in DMSO. The inhibitor concentration range during the assay was 100 μM to 46 nM (3-fold dilution series). A second set of baseline control plates were prepared analogously, but without any bacteria added, to correct for possible compound absorbance and/or precipitation. Plates were sealed with “Breathe Easy” oxygen permeable membranes (Diversified Biotech) and left to incubate at 37° C. without shaking (stagnant assay) until the biofilm was formed. After 24 h, the planktonic cultures were removed and the plates were washed gently 2-3 times with 200 μl of water. Next, the plates were air dried and the adherent biofilms were stained with 150 μL of crystal violet solution (2.3% crystal violet in 20% Ethanol, Sigma Aldrich #HT90132) for 15 minutes at R.T. The unbound crystal violet stain was removed, then plates were gently washed again with running water and air dried for 10 min. Quantitative assessment of biofilm formation was obtained by adding 100 μL of developer solution (4:1:5 mixture of MeOH:AcOH:H2O) per well. Well absorbance was then read at 595 nm using a Molecular Devices SpectraMax Plus384 microplate reader. […] Results presented represent the averages of EC50 values obtained from at least triplicate experiments.
Establishing biofilms is another effective mechanism by which S. aureus can evade the effects of many current antibiotics, including vancomycin. […] Briefly, test compounds (1, 2, 5, 8, 11, and vancomycin) were incubated with S. aureus bacteria in media supplemented with 0.5% glucose (to support biofilm formation) for 24 h at 37° C. After 24 h, the supernatant was removed, the wells were gently washed, and the biofilm that had formed on the well surfaces were stained with crystal-violet and quantified by UV-Vis spectroscopy.

MRSA (ATCC BAA-44) = assay: MRSA resistance generation, 12-day serial passage assay; assay type: cell-based, Staphylococcus aureus; conditions: 12 days serial passage, EC50 per passage
Method: To identify potential resistance toward compounds 1 and 11, a liquid culture, 12-day serial passage assay was employed as per previously reported procedures, and using the ATCC BAA-44 MRSA strain. MRSA bacteria were streaked onto a Tryptic Soy agar plate and grown overnight at 37° C. A fresh aliquot of Tryptic Soy Broth (TSB) was inoculated with a single bacterial colony and the cultures were grown overnight at 37° C. with shaking (250 rpm). The overnight culture was then sub-cultured (1:5 dilution) into a fresh aliquot of media and grown at 37° C. for 1 h with shaking, then diluted into fresh media to achieve a final OD600 reading of 0.01. Aliquots of the diluted culture (200 μL) were dispensed to 96 well plates along with addition of 2 μL of test compounds in DMSO (1, 11, vancomycin, and a previously-reported GroEUES inhibitor, “28R”). The inhibitor concentration range during the resistance assay was 100 μM to 48.8 nM (2-fold dilution series). Plates were sealed with “Breathe Easy” oxygen permeable membranes (Diversified Biotech) and left to incubate at 37° C. without shaking (stagnant assay). OD600 readings were taken at the 24 h time point to monitor for bacterial growth. A second set of baseline control plates were prepared analogously, without any bacteria added, to correct for possible compound absorbance and/or precipitation, as well as plate and media baseline effects. […]

**Q.** With `CN[C@H](CC(C)C)C(=O)N[C@H]1C(=O)N[C@@H](CC(N)=O)C(=O)N[C@H]2C(=O)N[C@H]3C(=O)N[C@H](C(=O)N[C@H](C(=O)O)c4cc(O)cc(O)c4-c4cc3ccc4O)[C@H](O)c3ccc(c(Cl)c3)Oc3cc2cc(c3O[C@@H]2O[C@H](CO)[C@@H](O)[C@H](O)[C@H]2O[C@H]2C[C@](C)(N)[C@H](O)[C@H](C)O2)Oc2ccc(cc2Cl)[C@H]1O` [Vancomycin, vancomycin, reference compound] as the molecule, how does the EC50 ([1]; ATCC25923, 24 h) read?
**A.** 540 nM

**Q.** Which results are given for `O=C(Nc1ccc(Sc2nc3ccccc3s2)c(Cl)c1)c1cc(Br)cc(Br)c1O` [Compound 1, N-(4-(Benzo[d]thiazol-2-ylthio)-3-chlorophenyl)-3,5-dibromo-2-hydroxybenzamide]?
**A.** ability of MRSA to generate resistance (in words) (MRSA (ATCC BAA-44)): not able to easily generate resistance; also recorded: retained sensitivity; EC50 ([1]; ATCC25923, 24 h): 720 nM

**Q.** Which EC50 ([1]; ATCC25923, 24 h) does the source give for `O=C(Nc1ccc(Sc2nc3ccccc3s2)c(Cl)c1)c1cccc(Br)c1O` [Compound 2, N-(4-(Benzo[d]thiazol-2-ylthio)-3-chlorophenyl)-3-bromo-2-hydroxybenzamide] here?
**A.** 1000 nM

**Q.** Which EC50 ([1]; ATCC25923, 24 h) does the source give for `O=C(Nc1ccc(Sc2nc3ccccc3s2)cc1)c1cc(Br)cc(Br)c1O` [Compound 5, N-(4-(Benzo[d]thiazol-2-ylthio)phenyl)-3,5-dibromo-2-hydroxybenzamide] here?
**A.** 540 nM

**Q.** `O=C(Nc1cccc(Cl)c1)c1cc(Br)ccc1O` [Compound 11, 5-Bromo-N-(3-chlorophenyl)-2-hydroxybenzamide] was tested. Which “ability of MRSA to generate resistance (in words)” value (MRSA (ATCC BAA-44)) did it give?
**A.** not able to easily generate resistance; also recorded: retained sensitivity

**Q.** And the EC50 ([1]; ATCC25923, 24 h)?
**A.** 440 nM

**Q.** How did the EC50 ([1]; ATCC25923, 24 h, media with 0.5% glucose, crystal violet A595) turn out when `O=C(Nc1ccc(Sc2nc3ccccc3s2)cc1)c1ccccc1O` [Compound 8, N-(4-(Benzo[d]thiazol-2-ylthio)phenyl)-2-hydroxybenzamide] was run?
**A.** 910 nM
